We go through 7 compounds from patent publication US20030162777A1, “Novel N-acylated heterocycles” (Recordati S.A., priority 2001, published 2003).

pKi: −log10 of the molar value. Like-named read-outs stand apart in the source and are kept apart here.

Experiment [1] addresses T1, human 5HT1A-serotonergic receptor (Homo sapiens, UniProt P08908).
T1 construct: expressed in transfected cells; host or cells: HeLa (human cell line), stably transfected; cell membranes used
T1 sequence (P08908 1-422): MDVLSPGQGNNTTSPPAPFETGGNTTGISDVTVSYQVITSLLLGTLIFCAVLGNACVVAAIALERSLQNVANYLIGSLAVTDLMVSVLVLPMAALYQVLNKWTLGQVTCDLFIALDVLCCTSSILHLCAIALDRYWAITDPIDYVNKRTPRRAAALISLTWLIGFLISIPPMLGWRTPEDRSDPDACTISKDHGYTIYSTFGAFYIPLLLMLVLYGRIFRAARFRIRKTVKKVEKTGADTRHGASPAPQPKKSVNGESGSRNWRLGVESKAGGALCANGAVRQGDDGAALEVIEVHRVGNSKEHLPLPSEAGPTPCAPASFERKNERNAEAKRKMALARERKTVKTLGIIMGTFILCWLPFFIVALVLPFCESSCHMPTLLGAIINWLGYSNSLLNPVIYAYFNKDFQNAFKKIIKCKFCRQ
The experiment can be described thus: Radioligand binding to recombinant 5-HT1A receptors. The settings on record: [3H]8-OH-DPAT 1 nM, membranes of HeLa cells with human 5-HT1A receptor; Ki from IC50 by Cheng & Prusoff; read-out: Binding affinity for 5HT1A receptors, Ki. Put shortly: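 Displacement of 1 nM [3H]8-OH-DPAT (30 min, 30 °C, Tris-HCl pH 7.4 with MgCl2 and pargyline) from recombinant human 5-HT1A in transfected HeLa membranes, stopped by filtration. Specific binding defined against 10 μM 5-HT; IC50 by nonlinear fitting, then Ki by Cheng–Prusoff.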

The subject of experiment [2] is anaesthetised rats. In words: Effects on rhythmic bladder-voiding contractions induced by bladder filling in anaesthetised rats. The settings on record: for ED50: Rattus norvegicus; for ED50 / ED10 min (extrapolated dose inducing 10 minutes of disappearance of the contractions): intravenous administration. It is filed as in vivo, rat. The procedure: Female Sprague-Dawley rats weighing 225-275 g (Crl: CDo Br, Charles River Italia) were used. The animals were housed with free access to food and water and maintained on a forced 12-hour alternating light-dark cycle at 22-24° C. for at least one week, except during the experiment. The activity on rhythmic bladder voiding contractions was evaluated according to the method of Dray (Dray J., Pharmacol. Methods, 13:157, 1985), with some modifications as in Guarneri (Guarneri, Pharmacol. Res. 27:173, 1993). Briefly, the rats were anaesthetised by subcutaneous injection of 1.25 g/kg (5 ml/kg) urethane, after which the urinary bladder was catheterised via the urethra using PE 50 polyethylene tubing filled with physiological saline. The catheter was tied in place with a ligature around the external urethral orifice and was connected to conventional pressure transducers (Statham P23 ID/P23 XL). […] The bladder was then filled via the recording catheter by incremental volumes of warm (37° C.) saline until reflex bladder-voiding contractions occurred (usually 0.8-1.5 ml). For intravenous injection of bioactive compounds, PE 50 polyethylene tubing filled with physiological saline was inserted into the jugular vein.
From the cystometrogram, the number of contractions recorded 15 minutes before (basal values) and after treatment, as well as the mean amplitude of these contractions (mean height of the peaks in mmHg), was evaluated.
Since most compounds produced an effect that was relatively rapid in onset and led to a complete cessation of bladder contractions, bioactivity was conveniently estimated by measuring the duration of bladder quiescence (i.e. the length of the time during which no contractions occurred). The number of tested animals showing a reduction in the number of contractions higher than 30% of that observed in the basal period was recorded too.
The extrapolated doses which induced a reduction in the number of contractions greater than 30% in 50% of the treated rats (ED50) were evaluated by the method of Bliss (Bliss C. I., Quart J. Pharm. Pharmacol. 11, 192-216, 1938).

The target of experiment [3] is T2, 5-HT1A receptors (Rattus norvegicus, UniProt P19327).
T2 construct: from tissue; host or cells: whole animal: male Sprague-Dawley rats (post-synaptic 5-HT1A receptors)
T2 sequence (P19327 1-422): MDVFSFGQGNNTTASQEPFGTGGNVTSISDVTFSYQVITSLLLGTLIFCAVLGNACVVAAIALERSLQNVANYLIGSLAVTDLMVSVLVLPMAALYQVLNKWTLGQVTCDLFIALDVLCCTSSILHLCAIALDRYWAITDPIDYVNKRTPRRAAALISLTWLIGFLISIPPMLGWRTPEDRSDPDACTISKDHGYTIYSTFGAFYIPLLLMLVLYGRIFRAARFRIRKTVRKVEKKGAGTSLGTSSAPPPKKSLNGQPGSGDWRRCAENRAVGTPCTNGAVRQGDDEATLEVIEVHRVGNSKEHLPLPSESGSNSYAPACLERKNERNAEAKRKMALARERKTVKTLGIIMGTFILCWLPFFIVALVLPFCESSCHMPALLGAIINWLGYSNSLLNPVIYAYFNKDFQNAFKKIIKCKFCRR
In words: Inhibition of stereotypy (rhythmic forepaw treading) induced by 8-OH-DPAT in rats (post-synaptic antagonism). It is filed as in vivo. The settings on record: for inhibition at 1 mg/kg / inhibition at 10 mg/kg: rat; for inhibition at 10 mg/kg: 10 mg/kg p.o. On the procedure: The inhibitory effect of 5-HT1A-receptor antagonists on stereotyped forepaw treading induced in rats by subcutaneous injection of 8-OH-DPAT was evaluated by the method of Tricklebank (Tricklebanket al., Eur. J. Pharmacol., 117: 15, 1985) with minor modifications as described below.
Male Sprague-Dawley rats [Crl: CD° (SD) BR] weighing 150-175 g from Charles River Italia were used. The animals were housed with free access to food and water and maintained on a forced 12-hour-light/12-hour-dark cycle at 22-24° C. of temperature. On the day of the experiment, the rats were placed singly in clear plastic containers, 10-15 minutes before administration of the vehicle or compounds to be tested. For evaluation of antagonistic activity after oral administration, the compounds were administered 0.5, 1 and 4 hours before induction of stereotypy by 8-OH-DPAT (1 mg/kg subcutaneously). Observation sessions lasted 30 seconds and began 3 minutes after 8-OH-DPAT treatment and were repeated every 3 minutes over a period of 15 minutes.
The appearance of the symptom induced by postsynaptic stimulation of 5-HT1A receptors was noted, and the intensity was scored using an intensity scale in which: 0=absent, 1=equivocal, 2=present and 3=intense. Behavioural scores for treated rats were accumulated throughout the observation time (5 observation periods) and expressed as mean values of 4 rats/dose. Change in mean values of treated animals in comparison with control (vehicle) group, expressed as per-cent inhibition, was used in order to quantify the antagonistic activity.

The subject of experiment [4] is conscious rats. The experiment can be described thus: Effect on cystometric parameters in conscious rats after oral administration. It is filed as in vivo, rat. The settings on record: 3 mg/kg p.o., 1-5 h after treatment, versus vehicle. On the procedure: Male Sprague-Dawley rats [Crl: CD° (SD) BR] of 300-400 g supplied by Charles River Italia were used. The animals were housed with free access to food and water and maintained on a forced 12-hour-light/12-hour-dark cycle at 22-24° C. of temperature, except during the experiment. To quantify urodynamic parameters in conscious rats, cystometrographic studies were performed according to the procedure previously reported (Guarneri et al., Pharmacol. Res. 24: 175, 1991).
Briefly, the rats were anaesthetised by intraperitoneal administration of 3 ml/kg of Equithensin solution (pentobarbital 30 mg/kg and chloral hydrate 125 mg/kg) and placed in a supine position. An approximately-10-mm-long midline incision was made in the shaved and cleaned abdominal wall. The urinary bladder was gently freed from adhering tissues, emptied and then cannulated via an incision in the bladder body, using a polyethylene cannula (0.58-mm internal diameter, 0.96-mm external diameter) which was permanently sutured with silk thread. The cannula was exteriorised through a subcutaneous tunnel in the retroscapular area, where it was connected to a plastic adapter in order to avoid the risk of removal by the animal. For drug testing, the rats were utilised one day after implantation.
On the day of the experiment, the rats were placed in modified Bollman cages, i.e. restraining cages that were large enough to permit the rats to adopt a normal crouched posture, but narrow enough to prevent turning around. […] The intraluminal-pressure signal during infusion of saline into the bladder was continuously recorded on a polygraph (Rectigraph-8K San-ei with BM614/2 amplifier from Biomedica Mangoni) and, from the cystometrogram, two urodynamic parameters were evaluated: bladder volume capacity (BVC) and micturition pressure (MP). […] Basal BVC and MP values were evaluated as mean of the values observed in the cystometrograms recorded in an initial period of 30-60 minutes. […] The bladder infusion restarted and changes in BVC and MP were evaluated from the mean values obtained in the cystometrograms observed during 1, 2, 3, 4 and 5 hours after treatment. […]
All data were expressed as mean±standard error. Time-course data were analysed by S.A.S./STAT software, version 6.12. The difference between vehicle and active-treatment effect was evaluated by: General Linear Model Procedure—Repeated Measures Analysis of Variance: Univariate test of Hypotheses for within Subject Effects—Analysis of Variance of Contrast Variables. […]

Where [5] appears, read: urethane-anaesthetised rats, read-out: ED50 frequency (extrapolated dose inducing a reduction of the number of contractions >30% in 50% of treated rats).
Setting [6] is: 1 h before 8-OH-DPAT (1 mg/kg s.c.).
[7] abbreviates: 4 h before 8-OH-DPAT (1 mg/kg s.c.).

As for `O=C(C1CCCCC1)N1c2ccccc2CCC1CN1CCN(c2cccc3[nH]ccc23)CC1` (single isomer, unassigned; (+)) [Example (+)-1, (+)-1-(1-Cyclohexanecarbonyl-1,2,3,4-tetrahydroquinoline-2-ylmethyl)-4-(4-indolyl)piperazine], the pKi in experiment [1] was 9.70. Also, the ED50 in experiment [2] (setting [5]) is 0.024 mg/kg. Also, the “ED10 min (extrapolated dose inducing 10 minutes of disappearance of the contractions)” value (“ED10 min” for short) in experiment [2] (urethane-anaesthetised rats) is 0.072 mg/kg. The “post-synaptic 5-HT1A-receptor antagonist activity (in words)” value in experiment [3] (1 mg/kg p.o., rats) is “significant and complete inhibition of the symptom up to 4 hours after administration”. The inhibition at 1 mg/kg was determined as 100% in experiment [3] (1 mg/kg p.o., 0.5 h before 8-OH-DPAT (1 mg/kg s.c.)); 100% in experiment [3] (1 mg/kg p.o., 1 h before 8-OH-DPAT (1 mg/kg s.c.)); 98% in experiment [3] (1 mg/kg p.o., 4 h before 8-OH-DPAT (1 mg/kg s.c.)).

As to `COc1ccccc1N1CCN(CC2CCc3ccccc3N2C(=O)C2CCCCC2)CC1` (stereo not shown) [Example 2, 1-(1-Cyclohexanecarbonyl-1,2,3,4-tetrahydroquinoline-2-ylmethyl)-4-(2-methoxyphenyl)piperazine], the pKi in experiment [1] is 9.52. Besides, the ED50 in experiment [2] (setting [5]) was 0.172 mg/kg. For the same compound, the “ED10 min” value in experiment [2] (urethane-anaesthetised rats) is 0.383 mg/kg.

As for `COc1ccccc1N1CCN(CCC2CCc3ccccc3N2C(=O)C2CCCCC2)CC1` (stereo not shown) [Example 3, 1-[2-(1-Cyclohexanecarbonyl-1,2,3,4-tetrahydroquinoline-2-yl)ethyl]-4-(2-methoxyphenyl)piperazine], in experiment [1], the pKi is 8.08. Moreover, the ED50 in experiment [2] (setting [5]) is 0.02 mg/kg. Besides, in experiment [2] (urethane-anaesthetised rats), the “ED10 min” value is 0.08 mg/kg.

For `O=C(C1CCCC1)N1c2ccccc2CCC1CN1CCN(c2cccc3[nH]ccc23)CC1` (stereo not shown) [Example 24A3, 1-(1-Cyclopentanecarbonyl-1,2,3,4-tetrahydroquinoline-2-ylmethyl)-4-(4-indolyl)piperazine], the pKi in experiment [1] was 8.27. Also, the inhibition at 10 mg/kg is 100% in experiment [3] (0.5 h before 8-OH-DPAT (1 mg/kg s.c.)), 93% in experiment [3] (setting [6]) and 100% in experiment [3] (setting [7]).

For the compound `Cc1[nH]c2cccc(N3CCN(CC4CCc5ccccc5N4C(=O)C4CCCCC4)CC3)c2c1C` (stereo not shown) [Example 35A13, 1-(1-Cyclohexanecarbonyl-1,2,3,4-tetrahydroquinoline-2-ylmethyl)-4-(2,3-dimethyl-4-indolyl)piperazine], in experiment [1], the negative logarithm of the Ki (pKi) is 8.40. In addition, the values for the inhibition at 10 mg/kg in experiment [3] (setting [6]) and in experiment [3] (setting [7]) were 95% and 100%, respectively.

Consider `Cc1c(-c2ccccc2)oc2c(C(=O)OCCN3CCCCC3)cccc2c1=O` [Flavoxate, flavoxate, reference compound], for which, in experiment [2] (setting [5]), the ED50 was 2.65 mg/kg. In addition, in experiment [2] (urethane-anaesthetised rats), the “ED10 min” value was greater than 10 mg/kg.

As for `CCN(CC)CC#CCOC(=O)C(O)(c1ccccc1)C1CCCCC1` (stereo not shown) [Oxybutynin, oxybutynin, reference compound], the ED50 in experiment [2] (setting [5]) was greater than 10 mg/kg; in experiment [2] (n.a. = not active, no significant reduction of the height of the peaks, read-out: ED50 amplitude (extrapolated dose inducing a 30% reduction of amplitude of the contractions in 50% of treated rats)), 0.24 mg/kg. In experiment [2] (urethane-anaesthetised rats), the “ED10 min” value is 7.77 mg/kg. The “cessation of bladder contractions (in words)” value in experiment [2] (intravenous, anaesthetised rats) is given as “does not cause cessation of bladder contractions”. For the same compound, the “effect on bladder volume capacity (BVC)” value in experiment [4] is “slight, not-significant increase”. Further, in experiment [4], the “effect on micturition pressure (MP)” value is “greatly reduced”.

Usually pKi stands for the negative decadic logarithm of the Ki, by convention in mol/L. By ED50 is commonly meant the dose at which the effect has come halfway, by size or by number of responders. What is called inhibition is the drop in the measured response relative to a control, in per cent.
